Tested on: rat heart tissue
Test: GENECALLING differential gene expression analysis after dosing of serotonin modulating agents
Type: in vivo, Sprague Dawley rats
Procedure: Control animals received sterile water or canola oil. The animals were sacrificed 24 hours following the last dose. Liver tissue was dissected from the animals, and total RNA was recovered from the dissected tissue. cDNA was prepared and the resulting samples were processed through using GENECALLING™ differential expression analysis as described in U.S. Pat. No. 5,871,697 and in Shimkets et al., Nature Biotechnology 17:798-803 (1999). The contents of these patents and publications are incorporated herein by reference in their entirety.
Thousands of gene fragments were initially found to be differentially expressed in rat heart tissue in response to serotonin modulating agents in. Genes fragments whose expression levels were modulated greater than ±1.5-fold were selected for further analysis.
Column 6 of Table 1, entitled “Function”, lists the type of classification assigned for the protein, based on its function. The 210 single nucleic acid sequences identified herein, are referred to herein as CARDIOTOX 1-210.

## CNS(=O)(=O)Cc1ccc2[nH]cc(CCN(C)C)c2c1 [sumatriptan]
CARDIOTOX 71
  Effects on Transcription Level: Novel gene fragment, 535 bp, 90% SI to mouse slow/cardiac troponin C [M29793]: −2.1 fold
CARDIOTOX 72
  Effects on Transcription Level: Novel gene fragment, 445 bp, 85% SI to human skeletal muscle alpha 2 actinin [M86406]: 5.7 fold
CARDIOTOX 73
  Effects on Transcription Level: Novel gene fragment, 246 bp, 89% SI to mouse ponsin-1 [AF078667]: −3.2 fold
CARDIOTOX 74
  Effects on Transcription Level: Novel gene fragment, 126 bp, 77% SI to human DNA sequence from cosmid V311G7, between markers DXS366 and DXS87 on chromosome X [Z69304]: +2.1 fold
CARDIOTOX 75
  Effects on Transcription Level: Novel gene fragment, 370 bp: −2.7 fold
CARDIOTOX 76
  Effects on Transcription Level: Novel gene fragment, 337 bp, 78% SI to novel human protein AHNAK [M80899]: −4.3 fold
CARDIOTOX 77
  Effects on Transcription Level: Novel gene fragment, 100 bp, 93% SI to human KIAA0750 protein [ABO18293]: −9.3 fold
CARDIOTOX 78
  Effects on Transcription Level: Novel gene fragment, 44 bp: −5.4 fold
CARDIOTOX 79
  Effects on Transcription Level: Novel gene fragment, 698 bp, 93% SI to mouse plenty-of-prolines-101 [AF062655]: −2.3 fold
CARDIOTOX 80
  Effects on Transcription Level: Novel gene fragment, 660 bp, 84% SI to mouse membrane protein TMS-2 [AF181685]: −3.8 fold
CARDIOTOX 81
  Effects on Transcription Level: Novel gene fragment, 115 bp: −4.1 fold
CARDIOTOX 82
  Effects on Transcription Level: Novel gene fragment, 294 bp, 95% SI to mouse Ndr1 related protein Ndr2 [AB033921]: −2.0 fold
CARDIOTOX 83
  Effects on Transcription Level: Novel gene fragment, 198 bp: +2.5 fold
CARDIOTOX 84
  Effects on Transcription Level: Novel gene fragment, 730 bp, 86% SI to mouse E800 [Y10968]: −2.8 fold
CARDIOTOX 85
  Effects on Transcription Level: Novel gene fragment, 294 bp, 98% SI to cysteine conjugate beta-lyase [S61960]: −2.8 fold
CARDIOTOX 86, GenBank A1243266
  Effects on Transcription Level: Aconitase: −1.9 fold
CARDIOTOX 87, GenBank M17422
  Effects on Transcription Level: Ribosomal protein L7: +2.5 fold
CARDIOTOX 88, GenBank X51706
  Effects on Transcription Level: Ribosomal protein L9: +10.1 fold
CARDIOTOX 89, GenBank X53504
  Effects on Transcription Level: Ribosomal protein L12: −1.5 fold
CARDIOTOX 90, GenBank V01270
  Effects on Transcription Level: 18S, 5.8S, and 28S ribosomal RNA's: +5 fold
CARDIOTOX 91, GenBank U10357
  Effects on Transcription Level: Pyruvate dehydrogenase kinase 2 (PDK2): −6.10 fold
CARDIOTOX 92, GenBank J03179
  Effects on Transcription Level: D-Binding Protein (DBP): −1.4 fold
CARDIOTOX 93, GenBank L03294
  Effects on Transcription Level: Lipoprotein lipase: −2.2 fold
CARDIOTOX 94, GenBank X02610
  Effects on Transcription Level: Non-neuronal enolase: +3.5 fold
CARDIOTOX 95, GenBank L10669
  Effects on Transcription Level: Glycogen phosphorylase (muscle isozyme): −2.6 fold
CARDIOTOX 96, GenBank X14209
  Effects on Transcription Level: Cytochrome c oxidase subunit IV: +10.0 fold
CARDIOTOX 97, GenBank M17083
  Effects on Transcription Level: Alpha-globin: +3.8 fold
CARDIOTOX 98, GenBank X06701
  Effects on Transcription Level: Beta-globin: +3.11 fold
CARDIOTOX 99, GenBank AF197916
  Effects on Transcription Level: Myoglobin: +4.7 fold
CARDIOTOX 100, GenBank L38717
  Effects on Transcription Level: Titin: −2.1 fold
CARDIOTOX 101, GenBank V01218
  Effects on Transcription Level: Skeletal muscle actin: −18.3 fold
CARDIOTOX 102, GenBank M11851
  Effects on Transcription Level: Myosin light chain 2 (MLC2): +2.2 fold
CARDIOTOX 103, GenBank X15938
  Effects on Transcription Level: Alpha cardiac myosin heavy chain: −3.5 fold
CARDIOTOX 104, GenBank U77354
  Effects on Transcription Level: Troponin I: +1.8 fold
CARDIOTOX 105, GenBank AF001334
  Effects on Transcription Level: Cardiac calsequestrin: −2.9 fold
CARDIOTOX 106, GenBank M16975
  Effects on Transcription Level: Sulfated glycoprotein 2: −1.6 fold
CARDIOTOX 107, GenBank AB000507
  Effects on Transcription Level: Aquaporin 7: +1.5 fold
CARDIOTOX 108, GenBank X97831
  Effects on Transcription Level: Carnitine/acylcarnitine carrier protein: −2.5 fold
CARDIOTOX 109, GenBank U40628
  Effects on Transcription Level: Glu-Pro Dipeptide Repeat: −6.2 fold
CARDIOTOX 110, GenBank X54737
  Effects on Transcription Level: Cystatin beta: +2.5 fold
CARDIOTOX 111
  Effects on Transcription Level: Novel gene fragment, 593 bp, 90% SI to human calcineurin B-like protein [Z08983]: +1.10 fold
CARDIOTOX 112
  Effects on Transcription Level: Novel gene fragment, 179 bp, 88% SI to human titin [X90568]: −3.1 fold
CARDIOTOX 113
  Effects on Transcription Level: Novel gene fragment, 700 bp, 91% SI to mouse periplakin (PPL) [AF116523]: +2.5 fold
CARDIOTOX 114, GenBank J05029
  Effects on Transcription Level: Long chain acyl-CoA dehydrogenase (LCAD): +1.7 fold
CARDIOTOX 115, GenBank M19936
  Effects on Transcription Level: Sulfated glycoprotein 1 (SGP-1): −1.8 fold
CARDIOTOX 116, GenBank M11670
  Effects on Transcription Level: Catalase: +2.1 fold
CARDIOTOX 117, GenBank AF084186
  Effects on Transcription Level: Alpha-fodrin (A2A) (Nonerythroid spectrin alpha subunit): −1.7 fold
CARDIOTOX 118, GenBank M27902
  Effects on Transcription Level: Cardiac specific sodium channel alpha-subunit: −2.0 fold
CARDIOTOX 119, GenBank U40628
  Effects on Transcription Level: Glu-Pro Dipeptide Repeat: +4.2 fold
CARDIOTOX 120
  Effects on Transcription Level: Novel gene fragment, 200 bp, 64% SI to human KIAA0733 protein [AB018316]: −1.6 fold
CARDIOTOX 121, GenBank L42855
  Effects on Transcription Level: RNA polymerase II transcription factor SIII (p18 subunit): +2.1 fold
CARDIOTOX 122, GenBank L01702
  Effects on Transcription Level: Protein-tyrosine phosphalase (LRP): +1.8 fold
CARDIOTOX 123, GenBank U25264
  Effects on Transcription Level: Skeletal muscle selenoprotein W (SelW): −1.6 fold
CARDIOTOX 124, GenBank X15635
  Effects on Transcription Level: Sarcoplasmic reticulum 2+-Ca-ATPase: −2.1 fold
CARDIOTOX 125, GenBank X53377
  Effects on Transcription Level: Ribosomal protein S7: +1.7 fold
CARDIOTOX 126, GenBank X05300
  Effects on Transcription Level: Ribophorin I: +2.0 fold
CARDIOTOX 127, GenBank X15939
  Effects on Transcription Level: Beta cardiac myosin heavy chain: +2.2 fold
CARDIOTOX 128, GenBank L12380
  Effects on Transcription Level: ADP-ribosylation factor 1: +1.3 fold
CARDIOTOX 129, GenBank U04942
  Effects on Transcription Level: Laminin receptor: +2.6 fold
CARDIOTOX 130
  Effects on Transcription Level: Novel gene fragment, 206 bp, 89% SI to human seryl-tRNA synthetase [X91257]: +1.8 fold
CARDIOTOX 131, GenBank X86086
  Effects on Transcription Level: Annexin VI: −09.0 fold
CARDIOTOX 132
  Effects on Transcription Level: Novel gene fragment, 325 bp, 90% SI to mouse N-RAP [U76618]: +1.7 fold
LD10 dose for three days
  Effects on Transcription Level: Novel gene fragment, 61 bp (CARDIOTOX 134): −3 fold
  Effects on Transcription Level: Novel gene fragment, 337 bp (CARDIOTOX 133): −2.1 fold
  Effects on Transcription Level: Novel gene fragment, 378 bp, 88% SI to human coatomer protein (COPA) [U24105] (CARDIOTOX 138): −2.1 fold
LD10 dose for three days, GenBank D16479
  Effects on Transcription Level: Long chain 3-ketoacyl-CoA thiolase (CARDIOTOX 136): −1.5 fold
LD10 dose for three days, GenBank D87671
  Effects on Transcription Level: TATA-binding protein interacting protein 120 (TIP120) (CARDIOTOX 135): +2.4 fold
LD10 dose for three days, GenBank D88250
  Effects on Transcription Level: Serine protease (CARDIOTOX 139): +1.7 fold
LD10 dose for three days, GenBank M34043
  Effects on Transcription Level: Thymosin beta-4 (CARDIOTOX 137): +1.4 fold
LD10 dose for three days, GenBank X86086
  Effects on Transcription Level: Annexin VI (no CARDIOTOX assignment given): −5.1 fold
